The subject of data set [1] is MDA-MB-231. In words: Cytotoxicity against human MDA-MB-231 cells assessed as cell growth inhibition at 30 uM by SRB assay relative to control. To be noted: read-out: GI. It counts as functional. For orientation: The SRB assay estimates cell density from bound dye.
In data set [2] the test system is K562. In words: Cytotoxicity against human K562 cells assessed as cell growth inhibition at 30 uM by MTT assay relative to control. It counts as functional. The conditions noted are these: read-out: GI. A general note: Formazan colour is commonly taken as a measure of viable cells.
Data set [3] deals with ASPC1. In words: Cytotoxicity against human ASPC1 cells assessed as cell growth inhibition at 30 uM by SRB assay relative to control. The conditions noted are these: read-out: GI. Format: functional.
Data set [4] is described as follows: Cytotoxicity against human L02 cells assessed as cell growth inhibition at 30 uM by SRB assay relative to control. Format: cell-based. To be noted: read-out: GI.
Data set [5] concerns Proteus sp. In words: Antibacterial activity against Proteus sp. assessed as reduction in bacterial growth. It counts as functional. The conditions noted are these: Proteus sp. (in: enterobacteria); time 24 hrs.
The subject of data set [6] is Bacillus cereus. The experiment in a line: Antibacterial activity against Bacillus cereus assessed as reduction in bacterial growth. Format: functional. To be noted: time 24 hrs.
Data set [7] concerns Mycolicibacterium phlei. In words: Antibacterial activity against Mycobacterium phlei assessed as reduction in bacterial growth. It counts as functional. To be noted: time 24 hrs.
The test system of data set [8] is Bacillus subtilis. The experiment in a line: Antibacterial activity against Bacillus subtilis assessed as reduction in bacterial growth. It counts as functional. The conditions noted are these: time 24 hrs.
Data set [9] deals with Staphylococcus aureus. The experiment in a line: Antibacterial activity against methicillin-resistant Staphylococcus aureus assessed as reduction in bacterial growth. It counts as functional. The conditions noted are these: time 24 hrs.
The subject of data set [10] is Vibrio parahaemolyticus. In words: Antibacterial activity against Vibrio parahaemolyticus assessed as reduction in bacterial growth. To be noted: time 24 hrs. Format: functional.
The test system of data set [11] is Escherichia coli. In words: Antibacterial activity against Escherichia coli assessed as reduction in bacterial growth. The conditions noted are these: time 24 hrs. It counts as functional.
Data set [12] has as its system Staphylococcus aureus. In words: Potency index, ratio of ciprofloxacin MIC to test compound MIC for methicillin-resistant Staphylococcus aureus. It counts as functional.

SMILES strings stand for the structures. Values after ≈ are worked out from the molar mass of the structure shown.

In general, MIC refers to the least concentration at which growth counts as inhibited.

On to `COC1=C(c2ccc(OC)cc2)C(=O)C(SC)=C(c2ccc(OC)cc2)C1=O`, for which the inhibition of growth at 30 µM in data set [1], in data set [2] and in data set [3] was < 50% in each case. In addition, the inhibition at 30 µM in [4] is < 50%.

Turning to `COC(=O)CSC1=C(c2ccc(OC)cc2)C(=O)C(OC)=C(c2ccc(OC)cc2)C1=O`, the inhibition of growth at 30 µM in data set [1], in data set [2] and in [3] was < 50% in each case. Further, the inhibition at 30 µM in data set [4] is < 50%.

Regarding `COC1=C(c2ccc(OC)cc2)C(=O)C(N)=C(c2ccc(OC)cc2)C1=O`, the inhibition of growth at 30 µM in data set [1], in data set [2] and in data set [3] was < 50% in each case. Further, the inhibition at 30 µM in [4] was < 50%.

As to `COc1ccc(-c2c(OC)c(O)c(-c3ccc(OC)cc3)c3sc(-c4nccs4)nc23)cc1`, the inhibition of growth at 30 µM in [1], in data set [2] and in data set [3] was < 50% each time. Further, the MIC in data set [5] was 3.1 µM (≈ 1.48 µg/mL); in data set [6], 1.5 µM (≈ 0.715 µg/mL); in data set [7] it was 6.2 µM (≈ 2.95 µg/mL); in [8] it was 3.1 µM (≈ 1.48 µg/mL); in data set [9], > 50 µM; in data set [10], 6.2 µM (≈ 2.95 µg/mL). Besides, the MIC in [11] was determined as 3.1 µM (≈ 1.48 µg/mL). Besides, in [4], the inhibition at 30 µM is < 50%.

`COC(=O)CCSC1=C(c2ccc(OC)cc2)C(=O)C(OC)=C(c2ccc(OC)cc2)C1=O`: the inhibition of growth at 30 µM in [1], in [2] and in [3] was < 50% in each case. Further, the MIC in data set [5] is 12 µM (≈ 5.62 µg/mL); in [6], > 50 µM; in data set [7] it was > 50 µM; in data set [8], 12 µM (≈ 5.62 µg/mL); in data set [9] it was 6.2 µM (≈ 2.9 µg/mL); in data set [10], > 50 µM. Further, in data set [11], the MIC is > 50 µM. In addition, in data set [4], the inhibition at 30 µM is < 50%. Moreover, the Ratio in data set [12] is 8.

With `O=C(O)c1cn(C2CC2)c2cc(N3CCNCC3)c(F)cc2c1=O` [CIPROFLOXACIN], the MIC in data set [5] worked out at 1.5 µM (≈ 0.497 µg/mL); in data set [6], 1.5 µM (≈ 0.497 µg/mL); in data set [7], 0.78 µM (≈ 0.258 µg/mL); in [8] it was 0.39 µM (≈ 0.129 µg/mL); in data set [9] it was 50 µM (≈ 16.6 µg/mL); in data set [10], 0.39 µM (≈ 0.129 µg/mL). In addition, the minimum inhibitory concentration (MIC) in data set [11] turned out to be 0.78 µM (≈ 0.258 µg/mL).
